Where two headings read alike, the source gives them in different places.
Legend:
[1] = system: U87 MG orthotopic brain xenografts; assay: U87 MG orthotopic brain xenograft, combination study with temozolomide; conditions: TMZ IP 3 mg/kg (days 6 and 13)
Description: In vivo brain tumour model: Male NIH-RNU rats weighing between 225 and 300 g are anesthetized with isoflurane and placed into a stereotaxic frame (David Kopf Instruments, Tujunga, Calif.). A mid-line incision is made and a 1 mm burr hole drilled 2 mm lateral from the midline and 3 mm anterior to the coronal suture. A cell suspension of 5×10^5 U87 MG human glioblastoma tumour cells (grown in Eagle's MEM with Earle Salts, L-glutamine and non essential amino acids, 1 mM Na pyruvate and 10% FBS) in 10 μL (5×10^5 cells for qd dosing and 1×10^6 for q2d dosing) is injected at a depth of 3 mm by means of a 25 or 50 μl Hamilton syringe over a period of approximately 2 min using a stereotaxic-mounted syringe pump (Nano-Injector, model #53310 and Stereotaxic Adapter Clamp, part #51681, Stoelting Co, Wood Dale, Ill.) with the syringe left in place for an additional 1 min to prevent backflow and the syringe is slowly withdrawn. […]
The primary outcome variable is survival. Animals are monitored daily until death and, in consultation with the veterinary staff and in adherence with the policy on tumour implantation, euthanized if the animal becomes moribund. […] Survival data are analyzed by the Kaplan-Meier method for median survival analysis using JMP ν6.0.2 (SAS Institute).

[2] = system: U87 MG subcutaneous xenografts; assay: U87 MG subcutaneous xenograft, combination study with temozolomide; type: in vivo, human; conditions: 3 mpk, IP, q7dx2
Description: (§1) Test compound is prepared in an appropriate vehicle (1% hydroxyethyl cellulose, in 25 mM phosphate buffer pH 2) and is administered by oral gavage daily (at 25, 50 or 100 mg/kg (mpk)) for 21 days when tumours are established (11-29 days after implant). Tumour response is determined by tumour volume measurement performed twice a week during the course of treatment.
(§2) The statistical method for assessing Tumour Growth Delay (TGD-Individual interpolation method) is as follows: For each animal, the time to reach a specified tumour volume (threshold) is calculated by interpolating between the last measurement before reaching the threshold and the next measurement. The interpolation is linear using log10(volume) vs. time. If an animal never reaches the threshold, its crossing time is reported at “>T” where T is the last day measured for that animal. These crossing times are analyzed as “time-to-event” data with right-censoring using a Weibull distribution. A mean and standard deviation are determined for each treatment group. Tumour growth delay (TGD) is the difference in mean crossing time between a treated group and the vehicle control group. T-tests are performed using the means and standard deviations from the Weibull analysis. Body weight is taken as a general measurement of toxicity.
U87 MG subcutaneous xenografts are grown and measured as previously described. The compound of Example 16 is formulated and administered as previously described and dosed orally once a day from days 11-31. Temozolomide (Schering Corporation) is formulated in 1% w/v hydroxyethylcellulose/0.25% v/v polysorbate 80 in purified water and administered by interperitoneal injection on days 11 and 18. A comparison of the single agent activity of temozolomide with a combination treatment with the compound of Example 16 is shown in Table 7. Tumor growth is analyzed by 2-way interaction analysis; log-transformed tumor volumes were analyzed with a repeated measures analysis of variance (ANOVA) using a spatial power correlation model in SAS, version 9.1 (Cary, N.C.). […]

[3] = system: Human colorectal cancer cells (colo-205); assay: Human subcutaneous xenograft model, colo-205, athymic nude mice; type: in vivo; conditions: oral gavage daily for 21 days
Description: as §1, §2

[4] = Plasma and brain exposure in non-tumour bearing male Sprague Dawley rats; type: in vivo, rat; conditions: male SD rats; for concentration at 2 h / concentration at 4 h / concentration at 24 h / concentration at 48 h: single oral dose 30 mg/kg
Description: Samples are taken over 48 h in order to determine plasma and brain concentrations. Animals are sacrificed, and whole blood collected by cardiac puncture and plasma isolated by centrifugation. Whole brain is collected and snapped frozen in liquid nitrogen. […] An internal standard compound in acetonitrile/methanol (1:1, v/v) is added to samples of plasma or brain homogenate to precipitate protein and the samples are centrifuged prior to analysis. The supernatants are analysed by injection and rapid gradient elution on a Javelin Betasil C18 column (20×2.1 mm cartridge, Mobile phase A: […] The eluted analytes are detected by LC-MS-MS analysis using a Sciex API 4000 triple quadrupole mass spectrometer. Concentrations of compounds in plasma or brain are determined from standards prepared under identical conditions. The plasma and brain concentrations are determined in this study from a group of three rats at each time point (see Tables 6a and 6b) and are used to calculate the area under the plasma concentration/time curve or the brain concentration/time curve from 0 to 48 hours. […] Maximal concentrations (Tmax) are detected at 4 h.

[5] = system: U87 MG human glioblastoma tumour cells; assay: Orthotopic Brain Xenograft Model, NIH-RNU rats, survival; type: in vivo
Description: Test compound is formulated in vehicle (1% w/v hydroxyethylcellulose/0.25% v/v polysorbate 80/0.05% v/v antifoam in purified water) and administered every day for 21 days at 20, 40 and 80 mpk (qdx21) and 80 mpk q2dx10 starting on day 4 after tumour implant.
The primary outcome variable is survival.

[6] = system: human acute myeloid leukaemia (AML) cells (MV4-11); assay: Human subcutaneous xenograft model, MV4-11, athymic nude mice; type: in vivo; conditions: for TGD Days (750 m3): oral gavage daily for 21 days
Description: as §1, §2

[7] = Solubility Assay; type: physicochemical; conditions: aqueous buffer, thermodynamic from solid; pH 8 phosphate buffer, ambient temperature, at least 16 hours, target 2.0 mg/mL
Description: The appropriate amounts of test compound are weighed into separate chromatographic vials. […] The vials are capped securely and placed in a rotation device. The vials are rotated through 360° for at least 16 hours at ambient temperature with an angular speed of about 50 rpm. A visual examination of the individual vials is performed after rotation. 250 μL from each vial is filtered through a 0.7 μm glass filter. The sample filtrate and standard filtrate are collected into separate wells of 96 deep well plates. […] The sample and standard solutions are analysed by HPLC (LC Column: […] A—0.2% Formic Acid in Water; B—0.2% Formic Acid in acetonitrile; […] Diode array detector scan from 200 nm to 400 nm. The wavelength extracted and used for quantitation is selected to provide the most accurate estimation of the sample preparations.) Retention time used for peak assignment for the test compound is obtained from the 200 μg/mL standard preparation chromatogram. Solubility values are calculated using a four-level calibration curve. The line of best fit for peak area of calibration standards calculated by chromatographic management data system using linear or quadratic through zero fit is used. Solubility results are reported in mg/mL. Preferred exemplified compounds display a solubility of at least 2 mg/ml in pH 8 phosphate buffer using the above assay.

[8] = system: human lung cancer cells (NCI H460); assay: Human subcutaneous xenograft model, NCI H460, athymic nude mice; type: in vivo; conditions: oral gavage daily for 21 days
Description: as §1, §2

[9] = system: human glioblastoma cells (U87MG); assay: Human subcutaneous xenograft model, U87MG, athymic nude mice; type: in vivo; conditions: U87 MG, oral gavage daily for 21 days
Description: as §1, §2

[10] = target: T1, CDK6 (Homo sapiens, UniProt Q00534); assay: CDK6 Inhibition Assay; type: biochemical; conditions: CDK6 kinase, 33P-ATP, CTRF substrate
T1 construct: purchased Proqinase 7533
T1 sequence (Q00534 whole entry): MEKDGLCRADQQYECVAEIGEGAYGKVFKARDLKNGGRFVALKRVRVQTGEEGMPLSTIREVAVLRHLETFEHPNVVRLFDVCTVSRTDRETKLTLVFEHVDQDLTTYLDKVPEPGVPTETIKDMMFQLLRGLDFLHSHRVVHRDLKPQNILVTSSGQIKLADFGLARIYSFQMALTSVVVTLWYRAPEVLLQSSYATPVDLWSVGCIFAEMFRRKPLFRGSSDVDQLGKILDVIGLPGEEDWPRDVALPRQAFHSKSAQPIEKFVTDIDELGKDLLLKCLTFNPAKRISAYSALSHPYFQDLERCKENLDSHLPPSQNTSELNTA
T1 sequence (P24385 whole entry partner): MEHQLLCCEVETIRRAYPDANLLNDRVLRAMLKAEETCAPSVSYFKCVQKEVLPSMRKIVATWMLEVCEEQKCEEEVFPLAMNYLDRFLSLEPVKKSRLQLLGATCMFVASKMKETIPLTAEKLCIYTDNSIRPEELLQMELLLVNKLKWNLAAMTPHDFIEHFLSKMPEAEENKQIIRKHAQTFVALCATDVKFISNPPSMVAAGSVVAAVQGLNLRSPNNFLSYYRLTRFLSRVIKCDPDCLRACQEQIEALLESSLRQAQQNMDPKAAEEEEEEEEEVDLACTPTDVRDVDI
Description: 10 μL of test compound in 20% DMSO, 20 μL of ATP and CTRF (Upstate cat # 12-439) solution, and 10 μL of enzyme solution are mixed in a 96 well plate. The ATP and CRTF solution is prepared to give a final concentration of 100 μM ATP, 0.5 μCi [^33P]-ATP and 0.8 μM CTRF diluted in kinase buffer of 68 mM HEPES pH 7.4, 6.72 mM MgCl2, 2.64 mM DTT, and 0.004% TRITON™ X-100. The enzyme solution is prepared for a final concentration of 1.7 ng/μL CDK6 enzyme (Proqinase cat # 7533) diluted in the kinase buffer described above in the CDK4 inhibition assay. Test compounds are serially diluted 1:3 in 20% DMSO to create a 10 point curve at a starting concentration of 20 μM. 20% DMSO buffer alone without added test compound is employed as a control, 500 mM EDTA is used to determine the level of background ^33P in the absence of enzyme activity. Reagents are mixed and incubated for 90 min at 20° C. The reaction is terminated by the addition of 80 μL 10% (v/v) H3PO4 and precipitation of material onto glass fiber filter plates (Millipore, MAFC N0B 50). The wells are washed four times with 0.5% H3PO4 and the radioactivity incorporated is determined with a microplate scintillation counter (Microbeta Trilux, Wallac).
The data is analyzed in the same manner as for CDK4. Preferred exemplified compounds display an IC50 of <30 nM in the above assay. […]

[11] = system: Calu-6 (lung) subcutaneous xenografts; assay: Calu-6 (lung) subcutaneous xenograft, combination study with gemcitabine; type: in vivo, human; conditions: 60 mpk, IP, q3dx7
Description: as §1, §2
Calu-6 (lung) subcutaneous xenografts are grown and measured as previously described. Gemcitabine was formulated in saline (0.9% sodium chloride in purified water) and administered via intraperitoneal injection q3dx7. Test compound was administered qdx21. A comparison of the single agent activity of gemcitabine with combination treatments containing both gemcitabine and the compound of Example 16 are shown in Table 10. Tumour growth is analyzed by 2-way interaction analysis.

[12] = Sprague Dawley, rat, brain, read-out: Brain concentration (Mean)
[13] = Sprague Dawley, rat, plasma, read-out: Plasma concentration (Mean)

Cn1nnc2c(C(N)=O)ncn2c1=O [Temozolomide]
Mean Survival [1]: 46.9 days | Median Survival [1]: 47 days | Dead/total animals [2]: 0/8 | Maximum body weight loss (%) [2]: −1% | Tumor volume (mg) at end of dosing period (day 31) [2]: 101.88 mg

CCN1CCN(Cc2ccc(Nc3ncc(F)c(-c4cc(F)c5nc(C)n(C(C)C)c5c4)n3)nc2)CC1.CS(=O)(=O)O [Example 16, [5-(4-Ethyl-piperazin-1-ylmethyl)-pyridin-2-yl]-[5-fluoro-4-(7-fluoro-3-isopropyl-2-methyl-3H-benzoimidazol-5-yl)-pyrimidin-2-yl]-amine methanesulfonate]
TGD Days (750 m3) ([3]; colo-205, 25 mpk): 15.3 days | TGD Days (750 m3) ([3]; colo-205, 50 mpk): 17.4 days | TGD Days (750 m3) ([3]; colo-205, 100 mpk): 39.9 days | concentration at 2 h [4, 12]: 758 ng/g | concentration at 4 h [4, 12]: 1500 ng/g | concentration at 24 h [4, 12]: 992 ng/g | concentration at 48 h [4, 12]: 718 ng/g | Cmax ([4]; Sprague Dawley, rat, plasma, 30 mg/kg oral): 1500 ng/mL | concentration at 2 h [4, 13]: 1010 ng/mL | concentration at 4 h [4, 13]: 1500 ng/mL | concentration at 24 h [4, 13]: 1020 ng/mL | concentration at 48 h [4, 13]: 972 ng/mL | Tmax ([4]; Sprague Dawley, rat, 30 mg/kg oral, plasma and brain, read-out: Maximal concentrations (Tmax)): 4 h | Cmax Brain ([4]; 30 mg/kg oral): 1500 ng/g | Tmax Brain ([4]; 30 mg/kg oral): 4.00 h | Tmax Plasma ([4]; 30 mg/kg oral): 4.00 h | blood-brain barrier penetration ([4]; 30 mg/kg oral): able to cross the blood-brain barrier and distributes well into the brain | AUC Brain ([4]; 30 mg/kg oral, 0-48 Hours): 47900 ng·h/g | AUC Plasma ([4]; 30 mg/kg oral, 0-48 Hours): 52300 ng·h/mL | Kp ([4]; male, Sprague Dawley, rat, brain/plasma, po, 30 mg/kg, 30 mg/kg oral, 0-48 Hours, read-out: AUC Brain/Plasma Ratio): 0.92 | Kp ([4]; male, Sprague Dawley, rat, brain/plasma, po, 30 mg/kg, 30 mg/kg oral, by AUC or Cmax, read-out: brain/plasma ratio): ~1 | Kp at 4 h ([4]; male, Sprague Dawley, rat, brain/plasma, po, 30 mg/kg, 30 mg/kg oral, read-out: Cmax Brain/Plasma Ratio): 1 | median survival compared to vehicle treated animals ([5]; 40 mpk qd, 80 mpk qd and 80 mpk q2d): statistically significant increase in median survival | Mean Survival ([5]; PO 20 mg/kg qd): 29.8 days | Median Survival ([5]; PO 20 mg/kg qd): 31 days | Mean Survival ([5]; PO 40 mg/kg qd): 34.3 days | Median Survival ([5]; PO 40 mg/kg qd): 37 days | Mean Survival ([5]; PO 80 mg/kg q2d): 33.0 days | Median Survival ([5]; PO 80 mg/kg q2d): 34 days | Mean Survival ([5]; PO 80 mg/kg qd): 36.9 days | Median Survival ([5]; PO 80 mg/kg qd): 37 days | tumour response ([6]; AML MV4-11 xenografts, 100 mg per Kg (mpk)): tumour regression is observed | TGD Days (750 m3) ([6]; MV4-11, 25 mpk): 10.4 days | TGD Days (750 m3) ([6]; MV4-11, 50 mpk): 11.5 days | Tumor volume (mg) at start of dosing period (day 28) ([6]; MV4-11, 100 mpk, PO, qdx21, day 28): 225.94 mg | Tumor volume (mg) at end of dosing period (day 49) ([6]; MV4-11, 100 mpk, PO, qdx21, day 49): 116.68 mg | TGD Days (750 m3) ([6]; MV4-11, 100 mpk): 28.8 days | solubility [7]: 2100 µg/mL | TGD Days (750 m3) ([8]; H460, 25 mpk): 1.5 days | TGD Days (750 m3) ([8]; H460, 50 mpk): 4.0 days | TGD Days (750 m3) ([8]; H460, 100 mpk): 6.7 days | TGD Days (750 m3) ([9]; 25 mpk): 6.1 days | TGD Days (750 m3) ([9]; 50 mpk): 10.0 days | TGD Days (750 m3) ([9]; 100 mpk): 21.4 days

Cc1nc2c(F)cc(-c3nc(Nc4ccc(CN5CCN(C(C)C)CC5)cn4)ncc3F)cc2n1C(C)C [Example 19, [5-Fluoro-4-(7-fluoro-3-isopropyl-2-methyl-3H-benzoimidazol-5-yl)-pyrimidin-2-yl]-[5-(4-isopropyl-piperazin-1-ylmethyl)-pyridin-2-yl]-amine methanesulfonate]
IC50 [10]: 5 nM

Cl.Nc1ccn([C@@H]2O[C@H](CO)[C@@H](O)C2(F)F)c(=O)n1 (single isomer, unassigned) [Gemcitabine, 2′-deoxy-2′,2′-difluorocytidine monohydrochloride (β-isomer)]
Dead/total animals [11]: 0/7 | Maximum body weight loss (%) [11]: −12% | Tumor volume (mg) at end of dosing period (day 38) [11]: 509.18 mg

Source: patent publication US7855211B2, “Protein kinase inhibitors” (Eli Lilly and Company, priority 2008, dated 2010)
